Tests used:
PI3Kα = target: T1, PI3Kα (Homo sapiens, UniProt P42336); test: radiometric kinase assay ([γ-33P]-ATP), Reaction Biology Corp.; assay type: biochemical
T1 construct: purchased Reaction Biology Corp. (Malvern, PA), contract assay service

SkBr3 xenograft = test: SkBr3 tumor xenograft study; assay type: in vivo, BALB/c nude mice
Method: We examined the effects of HS-133 using athymic BALB/c nude mice implanted with the SkBr3 cells. HS-133 was injected intratumorally 2 times per week with a dose of 5 mg/kg when tumors reached an average volume of 50–100 mm^3. […] The average tumor volume of HS-133 treated mice was reduced by about 50% compared to that of control mice (Fig. 8D). To assess the general toxicity, we also measured the body weight change in tumor-bearing mice.
To establish SkBr3 tumor xenograft in mice, the SkBr3 cell line was grown in a culture, detached by trypsinization, washed and resuspended in PBS. Six-week old athymic BALB/c nude mice (Central Lab. Animal Inc. Seoul, Korea) were injected with 5 × 10^6 cells in the right flank of each mouse to initiate tumor growth. After reaching a tumor volume of 50–100 mm^3, mice were randomly divided into two groups, each having six mice. Mice in the control group were fed with a 0.2 mL vehicle (DMSO:PEG400:saline = 5:50:45) by oral gavage daily and the second group with 10 mg/kg dose of HS-133 in 0.2 mL daily for 21 days. For intratumoral administration, HS-133 was injected intratumorally with 2 times per week with a dose of 5 mg/kg when tumors reached an average volume of 50–100 mm^3. The body weight and tumor size were recorded twice per week. The tumor size was calculated by 0.5 × long axis × (short axis) ^2. Animal care and experimental procedures were conducted in accordance with the Guide for Animal Experiments by the Korean Academy of Medical Sciences, and the protocols used to this study were approved by the Institutional Animal Care and Use Committee in Inha University Hospital (Approval No. 110802-105).

T47D cells = test: cell viability MTT assay, T47D; assay type: cell-based; details: Homo sapiens, 48 h, read-out: IC50, cell growth inhibition
Method: To determine whether HS-133 can function as a novel anticancer compound, we tested the ability of this compound to inhibit the growth of breast cancer cell lines (SkBr3, T47D, and MCF-7) using an MTT assay. The cells were exposed to various concentrations (0.5–50 μM) of HS-133 for 48 h. As shown in Fig. 3A-C, HS-133 inhibited the growth of all three breast cancer cell lines in a dose-dependent manner.
Cell viability was performed by an MTT assay. Briefly, the SkBr3, T47D, and MCF-7 cells were plated at a density of 1-5 × 10^3 cells/well in a 96-well plate for 48 h. The medium was removed, and the cells were treated with either DMSO as control or various concentrations of HS-133. The final concentration of DMSO in the medium was ≤ 0.1% (v/v). After the cells were incubated for 48 h, 20 μl of MTT solutions (2 mg/ml) was added to each well for another 4 h at 37°C. The formazan crystals that formed were dissolved in DMSO (200 μl/well) via constant shaking for 5 min. The plate was then read on a microplate reader at 540 nm. Three replicate wells were used for each analysis. The median inhibitory concentration (IC50, defined as the drug concentration at which cell growth was inhibited by 50%) was assessed from the dose-response curves.

T1 sequence (P42336 whole entry): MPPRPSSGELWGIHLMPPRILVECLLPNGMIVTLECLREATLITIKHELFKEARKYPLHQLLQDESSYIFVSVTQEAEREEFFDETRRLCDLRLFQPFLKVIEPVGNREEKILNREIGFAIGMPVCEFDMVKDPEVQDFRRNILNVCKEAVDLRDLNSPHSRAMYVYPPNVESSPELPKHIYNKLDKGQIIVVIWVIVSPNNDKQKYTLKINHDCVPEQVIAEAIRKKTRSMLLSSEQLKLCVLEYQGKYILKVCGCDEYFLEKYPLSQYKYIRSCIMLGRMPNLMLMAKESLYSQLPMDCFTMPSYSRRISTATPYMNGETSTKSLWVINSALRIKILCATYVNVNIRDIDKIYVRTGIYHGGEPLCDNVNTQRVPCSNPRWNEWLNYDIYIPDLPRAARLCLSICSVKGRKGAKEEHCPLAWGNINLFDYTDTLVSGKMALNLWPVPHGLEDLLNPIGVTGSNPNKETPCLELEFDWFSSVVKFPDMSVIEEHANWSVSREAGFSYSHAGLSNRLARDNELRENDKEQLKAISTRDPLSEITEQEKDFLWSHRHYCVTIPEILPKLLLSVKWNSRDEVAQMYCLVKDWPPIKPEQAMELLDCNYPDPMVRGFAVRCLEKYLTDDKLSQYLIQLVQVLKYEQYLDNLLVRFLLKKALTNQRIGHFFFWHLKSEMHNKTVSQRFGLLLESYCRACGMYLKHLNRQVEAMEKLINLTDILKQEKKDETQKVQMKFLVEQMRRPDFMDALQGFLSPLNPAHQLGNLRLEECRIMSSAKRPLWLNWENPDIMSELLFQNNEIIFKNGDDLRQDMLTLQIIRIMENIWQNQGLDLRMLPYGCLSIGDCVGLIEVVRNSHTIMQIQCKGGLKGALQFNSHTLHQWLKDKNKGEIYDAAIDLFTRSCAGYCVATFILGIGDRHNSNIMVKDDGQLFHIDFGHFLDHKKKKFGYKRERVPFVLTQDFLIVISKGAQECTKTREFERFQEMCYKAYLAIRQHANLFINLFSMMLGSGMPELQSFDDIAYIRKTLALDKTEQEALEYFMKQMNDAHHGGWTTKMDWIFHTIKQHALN
T1 sequence (P27986 whole entry partner): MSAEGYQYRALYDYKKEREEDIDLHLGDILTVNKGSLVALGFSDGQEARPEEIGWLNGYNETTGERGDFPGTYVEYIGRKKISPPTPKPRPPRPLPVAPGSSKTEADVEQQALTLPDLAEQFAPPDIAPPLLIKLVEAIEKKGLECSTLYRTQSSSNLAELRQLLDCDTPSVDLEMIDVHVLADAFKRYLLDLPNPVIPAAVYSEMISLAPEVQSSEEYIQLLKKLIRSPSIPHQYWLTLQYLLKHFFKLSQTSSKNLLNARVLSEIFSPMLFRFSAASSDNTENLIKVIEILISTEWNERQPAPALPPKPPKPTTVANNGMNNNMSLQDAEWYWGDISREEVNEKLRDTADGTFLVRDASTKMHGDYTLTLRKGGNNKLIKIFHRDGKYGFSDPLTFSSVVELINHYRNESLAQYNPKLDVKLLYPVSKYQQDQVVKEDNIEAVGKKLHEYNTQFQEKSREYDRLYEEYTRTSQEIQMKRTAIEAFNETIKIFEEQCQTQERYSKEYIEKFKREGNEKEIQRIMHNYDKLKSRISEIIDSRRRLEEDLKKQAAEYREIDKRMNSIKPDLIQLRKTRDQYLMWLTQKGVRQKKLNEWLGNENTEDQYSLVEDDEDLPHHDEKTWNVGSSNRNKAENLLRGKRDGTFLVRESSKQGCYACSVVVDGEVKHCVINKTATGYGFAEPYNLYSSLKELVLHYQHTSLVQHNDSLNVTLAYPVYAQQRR

CC(=O)Nc1ccc(-c2nc3c(c(=O)n(C)c(=O)n3C)n2-c2cccc(F)c2)cc1 [HS-133, N-(4-(7-(3-Fluorophenyl)-1,3-dimethyl-2,6-dioxo-2,3,6,7-tetrahydro-1H-purin-8-yl)phenyl) acetamide]
EC50 (PI3Kα; Fig. 2A, read-out: EC50 (printed in Fig. 2A), inhibitory activity against PI3Kα in vitro): 992 nM | IC50 (PI3Kα; radiometric kinase assay, read-out: IC50 against PI3Kα): 992 nM | tumor volume and weight (SkBr3 xenograft; intratumoral 5 mg/kg, 2 times per week, 19 days): remarkably reduced | reduction of average tumor volume compared to control mice (SkBr3 xenograft; oral 10 mg/kg daily for 21 days): about 50% | body weight change in tumor-bearing mice (SkBr3 xenograft; same dose, SkBr3 xenograft mice): no significant change | IC50 (T47D cells): 9400 nM
